Results from patent US11420947B2, “(S)-n-hydroxy-2-(2-(4-methoxyphenyl)butanamido)thiazole-5-carboxamide and pharmaceutically acceptable salts thereof” (TRANSLATIONAL DRUG DEVELOPMENT, LLC, priority 2018, dated 2022).
Like-named read-outs stand apart in the source and are kept apart here.

Legend:
SKUT-1 = test: CellTiter-Glo cell viability assay; assay type: cell-based; conditions: for IC50: Homo sapiens, SK-UT-1, SKUT-1, ENDOMETRIAL, Uterine, 72 hours
Description: (§1) Cell viability in the presence of varying concentrations of the above listed compounds at different time points was used to assess cytotoxicity and the effect of the compounds on cell proliferation.
(§2) Cell viability was measured by the CellTiter-Glo® cell viability assay from Promega (Madison, Wis.). The CellTiter-Glo® Luminescent Cell Viability Assay is a homogeneous method to determine the number of viable cells in culture based on quantitation of the ATP present, which signals the presence of metabolically active cells. Following treatment, CellTiter-Glo® is added to treatment wells and incubated at 37° C. luminescence values were measured at using a Molecular Devices Spectramax microplate reader
(§3) Cells were grown to 70% confluency, trypsinized, counted, and seeded in 96 well flat-bottom plates at a final concentration of 2.5×10^3-5×10^3 cells/well (Day 0). Cells were allowed to incubate in growth media for 24 hours. Treatment with the test agents or standard agents began on Day 1 and continued for 72 hours. At the 72-hour timepoint, treatment containing media was removed. Viable cell numbers are quantified by the CellTiter-Glo® cell viability assay as described above. Results from these studies were used to calculate an IC50 value (concentration of drug that inhibits cell growth by 50 percent of control) for each compound.
(§4) For single agent and combination studies, data from each experiment was collected and expressed as % Cell Growth using the following calculation: % Cell Growth=(ftest/fvehicle)×100
(§5) Where test is the fluorescence of the tested sample, and fvehicle is the fluorescence of the vehicle in which the drug is dissolved. Dose response graphs and IC50 values were generated using Prism 6 software (GraphPad) using the following equation: Y=(Top-Bottom)/(1+10^((logIC^50^-X)-HillSlope))

BxPC-3 = test: CellTiter-Glo cell viability assay; assay type: cell-based; conditions: for IC50: Homo sapiens, BxPC-3, PANCREAS, Pancreatic, 72 hours
Description: as §1, §2, §3, §4, §5

SUM149PT = test: CellTiter-Glo cell viability assay; assay type: cell-based; conditions: for IC50: Homo sapiens, SUM149PT, BREAST, IBC, 72 hours
Description: as §1, §2, §3, §4, §5

MDA-MB-468 = test: CellTiter-Glo cell viability assay; assay type: cell-based; conditions: for IC50: Homo sapiens, MDA-MB-468, BREAST, TNBC, 72 hours
Description: as §1, §2, §3, §4, §5

Cal-27 = test: CellTiter-Glo cell viability assay; assay type: cell-based; conditions: for IC50: Homo sapiens, Cal-27, H&N SQUAMOUS CELL, Tongue, 72 hours
Description: as §1, §2, §3, §4, §5

SN12CCP = test: CellTiter-Glo cell viability assay; assay type: cell-based; conditions: for IC50: SN12CCP, RENAL, RCC, 72 hours
Description: as §1, §2, §3, §4, §5

Hec-1A = test: CellTiter-Glo cell viability assay; assay type: cell-based; conditions: for IC50: Homo sapiens, Hec-1A, ENDOMETRIAL, 72 hours
Description: as §1, §2, §3, §4, §5

Hs852T = test: CellTiter-Glo cell viability assay; assay type: cell-based; conditions: for IC50: Hs852T, MELANOMA, 72 hours
Description: as §1, §2, §3, §4, §5

Nalm-6 = test: CellTiter-Glo cell viability assay; assay type: cell-based; conditions: for IC50: Homo sapiens, Nalm-6, HEMATOPIETIC, ALL, 72 hours
Description: as §1, §2, §3, §4, §5

SNU-1 = test: CellTiter-Glo cell viability assay; assay type: cell-based
Description: as §1, §2, §3, §4, §5

G402 = test: CellTiter-Glo cell viability assay; assay type: cell-based; conditions: for IC50: Homo sapiens, G-402, G402, RENAL, Renal leiomyoblastoma, 72 hours
Description: as §1, §2, §3, §4, §5

DOHH-2 = test: CellTiter-Glo cell viability assay; assay type: cell-based; conditions: for IC50: Homo sapiens, DOHH-2, HEMATOPIETIC, Lymphoma, 72 hours
Description: as §1, §2, §3, §4, §5

H358 = test: CellTiter-Glo cell viability assay; assay type: cell-based; conditions: for IC50: Homo sapiens, NCI-H358, H358, LUNG, NSCLC, 72 hours
Description: as §1, §2, §3, §4, §5

KG-1 = test: CellTiter-Glo cell viability assay; assay type: cell-based; conditions: for IC50: Homo sapiens, KG-1, HEMATOPIETIC, AML, 72 hours
Description: as §1, §2, §3, §4, §5

A549 = test: CellTiter-Glo cell viability assay; assay type: cell-based; conditions: for IC50: Homo sapiens, A549, LUNG, NSCLC, 72 hours
Description: as §1, §2, §3, §4, §5

HepG2 = test: CellTiter-Glo cell viability assay; assay type: cell-based; conditions: for IC50: Homo sapiens, HepG2, LIVER, HCC, 72 hours
Description: as §1, §2, §3, §4, §5

HCC1806 = test: CellTiter-Glo cell viability assay; assay type: cell-based; conditions: for IC50: Homo sapiens, HCC1806, BREAST, acantholytic squamous cell carcinoma, 72 hours
Description: as §1, §2, §3, §4, §5

LK-2 = test: CellTiter-Glo cell viability assay; assay type: cell-based; conditions: for IC50: Homo sapiens, LK-2, LUNG, Carcinoma, 72 hours
Description: as §1, §2, §3, §4, §5

MDA-MB-231 = test: CellTiter-Glo cell viability assay; assay type: cell-based; conditions: for IC50: Homo sapiens, MDA-MB-231, BREAST, TNBC, 72 hours
Description: as §1, §2, §3, §4, §5

NCI-H209 = test: CellTiter-Glo cell viability assay; assay type: cell-based; conditions: for IC50: Homo sapiens, NCI-H209, LUNG, Carcinoma, 72 hours
Description: as §1, §2, §3, §4, §5

ACHN = test: CellTiter-Glo cell viability assay; assay type: cell-based; conditions: for IC50: Homo sapiens, ACHN, RENAL, RCC, 72 hours
Description: as §1, §2, §3, §4, §5

[1] = Pharmacokinetics studies in mice; assay type: in vivo; conditions: for AUC(0-inf) / AUC(0-t) / Cmax / Tmax / half-life / bioavailability / Vd/F: mouse, in vivo; for Vd/F: read-out: Vz/Fobs
Text: Volume of distribution is one of the most important pharmacokinetic properties of a drug candidate and for an anticancer drug can result in increased drug distribution to the tumor.

[2] = IV-1 mg/kg, 5% Ethanol 5% Cremophor 90% Saline
[3] = PO-5 mg/kg, 10% Ethanol 90% Labrasol
[4] = SC-5 mg/kg, 5% Ethanol 5% Cremophor 90% Saline

CC[C@H](C(=O)Nc1ncc(C(=O)NO)s1)c1ccc(OC)cc1 [#1a, (S)—N-hydroxy-2-(2-(4-methoxyphenyl)butanamido)thiazole-5-carboxamide]
IC50 (SKUT-1): 215 nM
#1/#1a (SKUT-1; ratio of IC50, SKUT-1): 1.07
#1b/#1a (SKUT-1; ratio of IC50, SKUT-1): 5.86
IC50 (BxPC-3): 174 nM
#1/#1a (BxPC-3; ratio of IC50, BxPC-3): 1.44
#1b/#1a (BxPC-3; ratio of IC50, BxPC-3): 6.3
IC50 (SUM149PT): 74 nM
#1/#1a (SUM149PT; ratio of IC50, SUM149PT): 2.58
#1b/#1a (SUM149PT; ratio of IC50, SUM149PT): 8.27
IC50 (MDA-MB-468): 60 nM
#1/#1a (MDA-MB-468; ratio of IC50, MDA-MB-468): 1.13
#1b/#1a (MDA-MB-468; ratio of IC50, MDA-MB-468): 9.17
IC50 (Cal-27): 45 nM
#1/#1a (Cal-27; ratio of IC50, Cal-27): 4.78
#1b/#1a (Cal-27; ratio of IC50, Cal-27): 10.33
IC50 (SN12CCP): 55 nM
#1/#1a (SN12CCP; ratio of IC50, SN12CCP): 2.29
#1b/#1a (SN12CCP; ratio of IC50, SN12CCP): 7.45
IC50 (Hec-1A): 37 nM
#1/#1a (Hec-1A; ratio of IC50, Hec-1A): 1.51
#1b/#1a (Hec-1A; ratio of IC50, Hec-1A): 8.35
IC50 (Hs852T): 54 nM
#1/#1a (Hs852T; ratio of IC50, Hs852T): 9.07
#1b/#1a (Hs852T; ratio of IC50, Hs852T): 22.96
IC50 (Nalm-6): 11 nM
#1/#1a (Nalm-6; ratio of IC50, Nalm-6): 2.36
#1b/#1a (Nalm-6; ratio of IC50, Nalm-6): 8.27
#1/#1a (SNU-1; ratio of IC50, SNU-1): 3.86
#1b/#1a (SNU-1; ratio of IC50, SNU-1): 10.63
IC50 (G402): 65 nM
#1/#1a (G402; ratio of IC50, G402): 1.57
#1b/#1a (G402; ratio of IC50, G402): 7.71
IC50 (DOHH-2): 17 nM
#1/#1a (DOHH-2; ratio of IC50, DOHH-2): 0.94
#1b/#1a (DOHH-2; ratio of IC50, DOHH-2): 7.94
IC50 (H358): 69 nM
#1/#1a (H358; ratio of IC50, H358): 2.29
#1b/#1a (H358; ratio of IC50, H358): 8.09
IC50 (KG-1): 12 nM
#1/#1a (KG-1; ratio of IC50, KG-1): 1.83
#1b/#1a (KG-1; ratio of IC50, KG-1): 12.33
IC50 (A549): 52 nM
#1/#1a (A549; ratio of IC50, A549): 1.46
#1b/#1a (A549; ratio of IC50, A549): 7.65
IC50 (HepG2): 76 nM
#1/#1a (HepG2; ratio of IC50, HepG2): 2.83
#1b/#1a (HepG2; ratio of IC50, HepG2): 8.3
IC50 (HCC1806): 71 nM
#1/#1a (HCC1806; ratio of IC50, HCC1806): 2.52
#1b/#1a (HCC1806; ratio of IC50, HCC1806): 6.55
IC50 (LK-2): 40 nM
#1/#1a (LK-2; ratio of IC50, LK-2): 4.9
#1b/#1a (LK-2; ratio of IC50, LK-2): 9.95
IC50 (MDA-MB-231): 62 nM
#1/#1a (MDA-MB-231; ratio of IC50, MDA-MB-231): 1.82
#1b/#1a (MDA-MB-231; ratio of IC50, MDA-MB-231): 10.42
IC50 (NCI-H209): 16 nM
#1/#1a (NCI-H209; ratio of IC50, NCI-H209): 6.88
#1b/#1a (NCI-H209; ratio of IC50, NCI-H209): 15.69
IC50 (ACHN): 78 nM
#1/#1a (ACHN; ratio of IC50, ACHN): 2.94
#1b/#1a (ACHN; ratio of IC50, ACHN): 9.44
AUC % Extrap [1, 2]: 0.20%
CI/Fobs [1, 2]: 156 mL/min/kg
AUC % Extrap ([1]; PO-5 mg/kg): 1.93%
CI/Fobs ([1]; PO-5 mg/kg): 1122 mL/min/kg
AUC % Extrap [1, 3]: 1.93%
CI/Fobs [1, 3]: 1122 mL/min/kg
AUC % Extrap [1, 4]: 0.85%
CI/Fobs [1, 4]: 240.3 mL/min/kg
AUC(0-inf) [1, 2]: 107 ng·h/mL
AUC(0-t) [1, 2]: 106 ng·h/mL
Cmax [1, 2]: 131 ng/mL
Tmax [1, 2]: 15 min
half-life [1, 2]: 55.8 min
AUC(0-inf) ([1]; PO-5 mg/kg): 74.3 ng·h/mL
AUC(0-t) ([1]; PO-5 mg/kg): 72.8 ng·h/mL
Cmax ([1]; PO-5 mg/kg): 28.7 ng/mL
Tmax ([1]; PO-5 mg/kg): 30 min
bioavailability ([1]; PO-5 mg/kg): 13.9%
half-life ([1]; PO-5 mg/kg): 332 min
Vd/F ([1]; PO-5 mg/kg): 537 L/kg
AUC(0-inf) [1, 4]: 347 ng·h/mL
AUC(0-t) [1, 4]: 344 ng·h/mL
Cmax [1, 4]: 252 ng/mL
Tmax [1, 4]: 15 min
bioavailability [1, 4]: 65.1%
half-life [1, 4]: 73.2 min
Vd/F [1, 4]: 25.3 L/kg

CCC(C(=O)Nc1ncc(C(=O)NO)s1)c1ccc(OC)cc1 (racemic) [#1, N-hydroxy-2-(2-(4-methoxyphenyl)butanamido)thiazole-5-carboxamide]
IC50 (SKUT-1): 229 nM
IC50 (BxPC-3): 251 nM
IC50 (SUM149PT): 191 nM
IC50 (MDA-MB-468): 68 nM
IC50 (Cal-27): 215 nM
IC50 (SN12CCP): 126 nM
IC50 (Hec-1A): 56 nM
IC50 (Hs852T): 490 nM
IC50 (Nalm-6): 26 nM
IC50 (SNU-1; Homo sapiens, SNU1, SNU-1, GASTRIC, Carcinoma, 72 hours): 509 nM
IC50 (G402): 102 nM
IC50 (DOHH-2): 16 nM
IC50 (H358): 158 nM
IC50 (KG-1): 22 nM
IC50 (A549): 76 nM
IC50 (HepG2): 215 nM
IC50 (HCC1806): 179 nM
IC50 (LK-2): 196 nM
IC50 (MDA-MB-231): 113 nM
IC50 (NCI-H209): 110 nM
IC50 (ACHN): 229 nM
AUC % Extrap ([1]; PO-5 mg/kg): 5.51%
CI/Fobs ([1]; PO-5 mg/kg): 483.2 mL/min/kg
AUC(0-inf) ([1]; PO-5 mg/kg): 172 ng·h/mL
AUC(0-t) ([1]; PO-5 mg/kg): 163 ng·h/mL
Cmax ([1]; PO-5 mg/kg): 30.8 ng/mL
Tmax ([1]; PO-5 mg/kg): 30 min
bioavailability ([1]; PO-5 mg/kg): 14.3%
half-life ([1]; PO-5 mg/kg): 326 min
Vd/F ([1]; PO-5 mg/kg): 228 L/kg
